Measurements reported in ChEMBL document CHEMBL2331421, “Amino acid derived quinazolines as Rock/PKA inhibitors” (Bioorg Med Chem Lett, 2013).
One block for each molecule: values may come before it.

Tests used:
CYP2D6 = CYP2D6 (Homo sapiens, UniProt P10635); experiment: Inhibition of CYP2D6 (unknown origin) at 10 uM relative to control; assay type: ADME
[1] = target: Mitogen-activated protein kinase 8 (Homo sapiens, UniProt P45983); experiment: Inhibition of JNK1 (unknown origin)
CYP2C9 = CYP2C9 (Homo sapiens, UniProt P11712); experiment: Inhibition of CYP2C9 (unknown origin) at 10 uM relative to control; assay type: ADME
[2] = target: Rho-associated protein kinase 2 (Homo sapiens, UniProt O75116); experiment: Inhibition of human recombinant 6-His-tagged ROCK2 expressed in baculovirus-infected Sf9 cells using LCB-AKRRRLSSLRA-NH2 as substrate after 25 mins by TR-FRET assay
[3] = target: Mitogen-activated protein kinase 9 (Homo sapiens, UniProt P45984); experiment: Inhibition of JNK2 (unknown origin)
CYP1A2 = target: T1, CYP1A2 (Homo sapiens, UniProt P05177); experiment: Inhibition of CYP1A2 (unknown origin) at 10 uM relative to control; assay type: ADME
T1 sequence (P05177 whole entry): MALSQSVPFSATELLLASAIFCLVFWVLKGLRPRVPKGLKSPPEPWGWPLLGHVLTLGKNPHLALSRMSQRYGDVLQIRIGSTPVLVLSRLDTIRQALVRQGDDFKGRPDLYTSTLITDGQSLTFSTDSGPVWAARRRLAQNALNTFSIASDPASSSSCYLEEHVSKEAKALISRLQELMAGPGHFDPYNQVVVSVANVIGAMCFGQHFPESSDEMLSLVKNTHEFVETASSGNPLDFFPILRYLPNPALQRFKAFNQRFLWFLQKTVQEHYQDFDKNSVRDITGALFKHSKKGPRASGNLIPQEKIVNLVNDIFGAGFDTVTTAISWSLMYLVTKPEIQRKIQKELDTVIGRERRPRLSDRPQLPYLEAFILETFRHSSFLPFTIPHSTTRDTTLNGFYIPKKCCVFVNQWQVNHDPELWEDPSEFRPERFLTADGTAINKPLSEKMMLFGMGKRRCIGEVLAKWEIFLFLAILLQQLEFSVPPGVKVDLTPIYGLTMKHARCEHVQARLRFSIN

CYP3A4 = CYP3A4 (Homo sapiens, UniProt P08684); experiment: Inhibition of CYP3A4 (unknown origin) at 10 uM relative to control; assay type: ADME
[4] = Inhibition of PKA (unknown origin); set-up: species or system Homo sapiens
[5] = Inhibition of ROCK in rat A7r5 cells assessed as inhibition of myosin light chain bisphosphorylation by Western blot analysis; assay type: cell-based
[6] = target: Mitogen-activated protein kinase 14 (Homo sapiens, UniProt Q16539); experiment: Inhibition of p38alpha (unknown origin)
[7] = Half life in human liver microsomes; assay type: ADME, Microsome
[8] = target: Serine/threonine-protein kinase MRCK alpha (Homo sapiens, UniProt Q5VT25); experiment: Inhibition of MRCKalpha (unknown origin)
[9] = target: Mitogen-activated protein kinase 10 (Homo sapiens, UniProt P53779); experiment: Inhibition of JNK3 (unknown origin)
[10] = target: Rho-associated protein kinase 1 (Homo sapiens, UniProt Q13464); experiment: Inhibition of ROCK1 (unknown origin)
Rho-associated protein kinase 1, sequence (Q13464 whole entry): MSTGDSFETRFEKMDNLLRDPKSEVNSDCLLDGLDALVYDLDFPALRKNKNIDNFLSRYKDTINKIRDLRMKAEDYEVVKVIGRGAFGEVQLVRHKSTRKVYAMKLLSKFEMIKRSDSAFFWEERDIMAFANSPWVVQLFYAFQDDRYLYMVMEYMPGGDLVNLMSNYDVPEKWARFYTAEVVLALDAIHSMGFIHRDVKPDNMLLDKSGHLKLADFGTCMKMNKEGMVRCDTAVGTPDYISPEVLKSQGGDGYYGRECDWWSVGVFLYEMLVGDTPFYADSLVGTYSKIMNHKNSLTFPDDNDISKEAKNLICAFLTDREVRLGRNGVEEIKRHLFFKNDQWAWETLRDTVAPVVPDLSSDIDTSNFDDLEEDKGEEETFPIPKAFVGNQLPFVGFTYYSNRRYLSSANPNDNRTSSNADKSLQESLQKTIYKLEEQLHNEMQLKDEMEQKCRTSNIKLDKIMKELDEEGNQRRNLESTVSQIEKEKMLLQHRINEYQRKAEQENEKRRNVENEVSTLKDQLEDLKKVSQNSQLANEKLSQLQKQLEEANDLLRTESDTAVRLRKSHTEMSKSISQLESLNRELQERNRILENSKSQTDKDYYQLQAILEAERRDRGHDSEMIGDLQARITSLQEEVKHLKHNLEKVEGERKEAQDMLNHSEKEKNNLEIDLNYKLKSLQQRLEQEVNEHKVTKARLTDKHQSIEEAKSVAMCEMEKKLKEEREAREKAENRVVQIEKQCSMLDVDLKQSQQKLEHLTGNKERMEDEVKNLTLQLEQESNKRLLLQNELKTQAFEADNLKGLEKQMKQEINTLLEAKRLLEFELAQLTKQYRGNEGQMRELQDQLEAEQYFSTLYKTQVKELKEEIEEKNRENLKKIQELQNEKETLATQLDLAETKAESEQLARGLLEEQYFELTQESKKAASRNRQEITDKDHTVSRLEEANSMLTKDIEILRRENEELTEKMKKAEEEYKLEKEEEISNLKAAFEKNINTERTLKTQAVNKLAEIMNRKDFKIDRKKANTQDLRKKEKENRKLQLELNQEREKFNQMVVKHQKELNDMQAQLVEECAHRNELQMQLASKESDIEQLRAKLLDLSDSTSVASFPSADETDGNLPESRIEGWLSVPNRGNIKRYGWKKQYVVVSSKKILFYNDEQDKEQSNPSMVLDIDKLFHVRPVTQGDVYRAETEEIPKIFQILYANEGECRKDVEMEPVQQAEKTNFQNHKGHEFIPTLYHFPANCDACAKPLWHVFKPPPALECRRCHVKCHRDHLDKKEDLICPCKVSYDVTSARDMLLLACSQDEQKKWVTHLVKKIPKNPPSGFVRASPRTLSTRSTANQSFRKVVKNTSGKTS

Mitogen-activated protein kinase 8, sequence (P45983 whole entry): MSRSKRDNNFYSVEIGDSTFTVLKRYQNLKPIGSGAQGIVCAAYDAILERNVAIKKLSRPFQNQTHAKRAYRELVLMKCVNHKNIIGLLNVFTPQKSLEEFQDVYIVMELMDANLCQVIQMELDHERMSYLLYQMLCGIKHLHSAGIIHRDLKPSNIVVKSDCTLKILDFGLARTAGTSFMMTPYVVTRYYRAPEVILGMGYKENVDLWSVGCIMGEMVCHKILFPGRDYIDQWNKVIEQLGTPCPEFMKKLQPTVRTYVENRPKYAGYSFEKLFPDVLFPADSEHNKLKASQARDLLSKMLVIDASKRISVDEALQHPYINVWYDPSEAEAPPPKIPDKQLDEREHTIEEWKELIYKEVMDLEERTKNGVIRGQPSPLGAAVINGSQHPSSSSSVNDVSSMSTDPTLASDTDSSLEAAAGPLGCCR
Rho-associated protein kinase 2, sequence (O75116 whole entry): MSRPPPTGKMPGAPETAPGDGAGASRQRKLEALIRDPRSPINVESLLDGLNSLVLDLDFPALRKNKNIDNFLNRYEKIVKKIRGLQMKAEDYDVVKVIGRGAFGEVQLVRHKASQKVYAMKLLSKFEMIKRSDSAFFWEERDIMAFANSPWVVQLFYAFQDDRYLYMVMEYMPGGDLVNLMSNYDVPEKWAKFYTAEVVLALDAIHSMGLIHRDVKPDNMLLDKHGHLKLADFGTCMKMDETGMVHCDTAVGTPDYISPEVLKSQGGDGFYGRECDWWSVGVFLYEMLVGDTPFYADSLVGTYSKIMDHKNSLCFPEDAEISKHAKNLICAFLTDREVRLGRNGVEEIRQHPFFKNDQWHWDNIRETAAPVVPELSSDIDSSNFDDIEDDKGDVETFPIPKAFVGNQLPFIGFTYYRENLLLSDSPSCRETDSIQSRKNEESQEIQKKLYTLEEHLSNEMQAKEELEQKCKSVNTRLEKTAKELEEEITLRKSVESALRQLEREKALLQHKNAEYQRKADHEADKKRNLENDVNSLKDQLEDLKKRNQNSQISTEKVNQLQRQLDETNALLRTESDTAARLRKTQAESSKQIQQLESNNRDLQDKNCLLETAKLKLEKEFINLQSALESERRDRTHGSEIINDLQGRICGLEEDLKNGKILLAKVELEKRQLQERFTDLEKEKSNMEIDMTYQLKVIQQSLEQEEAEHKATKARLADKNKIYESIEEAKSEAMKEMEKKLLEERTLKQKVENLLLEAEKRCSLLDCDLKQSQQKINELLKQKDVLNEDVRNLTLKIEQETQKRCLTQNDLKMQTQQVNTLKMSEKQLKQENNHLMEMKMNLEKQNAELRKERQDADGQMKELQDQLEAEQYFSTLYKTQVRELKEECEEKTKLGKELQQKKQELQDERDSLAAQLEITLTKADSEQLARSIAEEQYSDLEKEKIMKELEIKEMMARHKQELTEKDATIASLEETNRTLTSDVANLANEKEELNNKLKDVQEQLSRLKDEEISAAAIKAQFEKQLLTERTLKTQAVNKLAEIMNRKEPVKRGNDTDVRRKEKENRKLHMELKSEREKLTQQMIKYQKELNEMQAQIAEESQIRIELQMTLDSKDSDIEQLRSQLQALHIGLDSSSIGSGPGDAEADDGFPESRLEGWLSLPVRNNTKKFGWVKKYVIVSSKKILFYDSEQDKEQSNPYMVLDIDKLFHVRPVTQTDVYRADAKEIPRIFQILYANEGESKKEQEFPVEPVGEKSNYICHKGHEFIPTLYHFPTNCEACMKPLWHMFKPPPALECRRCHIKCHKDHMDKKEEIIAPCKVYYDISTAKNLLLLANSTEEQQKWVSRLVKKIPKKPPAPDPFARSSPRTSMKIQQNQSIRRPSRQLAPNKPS
Mitogen-activated protein kinase 14, sequence (Q16539 whole entry): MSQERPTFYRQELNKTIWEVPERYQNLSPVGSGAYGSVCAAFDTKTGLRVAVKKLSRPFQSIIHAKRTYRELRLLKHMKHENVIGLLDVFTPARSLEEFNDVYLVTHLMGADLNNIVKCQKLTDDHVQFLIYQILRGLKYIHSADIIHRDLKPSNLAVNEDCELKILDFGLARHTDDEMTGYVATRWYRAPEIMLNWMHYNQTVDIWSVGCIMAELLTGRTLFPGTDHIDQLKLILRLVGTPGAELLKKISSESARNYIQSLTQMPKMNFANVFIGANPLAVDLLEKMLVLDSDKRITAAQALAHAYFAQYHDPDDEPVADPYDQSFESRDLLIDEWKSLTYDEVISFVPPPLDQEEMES
Mitogen-activated protein kinase 9, sequence (P45984 whole entry): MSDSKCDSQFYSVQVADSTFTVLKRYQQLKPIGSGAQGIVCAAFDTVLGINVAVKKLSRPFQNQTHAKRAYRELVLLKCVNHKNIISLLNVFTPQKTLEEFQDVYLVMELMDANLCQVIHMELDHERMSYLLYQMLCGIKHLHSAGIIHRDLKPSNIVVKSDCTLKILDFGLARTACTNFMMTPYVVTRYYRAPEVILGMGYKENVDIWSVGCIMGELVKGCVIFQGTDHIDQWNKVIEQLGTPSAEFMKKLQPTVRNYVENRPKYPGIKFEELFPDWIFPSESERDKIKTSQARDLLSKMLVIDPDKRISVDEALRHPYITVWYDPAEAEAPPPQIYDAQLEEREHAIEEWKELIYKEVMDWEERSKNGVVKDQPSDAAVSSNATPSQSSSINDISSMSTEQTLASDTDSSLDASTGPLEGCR
CYP2C9, sequence (P11712 whole entry): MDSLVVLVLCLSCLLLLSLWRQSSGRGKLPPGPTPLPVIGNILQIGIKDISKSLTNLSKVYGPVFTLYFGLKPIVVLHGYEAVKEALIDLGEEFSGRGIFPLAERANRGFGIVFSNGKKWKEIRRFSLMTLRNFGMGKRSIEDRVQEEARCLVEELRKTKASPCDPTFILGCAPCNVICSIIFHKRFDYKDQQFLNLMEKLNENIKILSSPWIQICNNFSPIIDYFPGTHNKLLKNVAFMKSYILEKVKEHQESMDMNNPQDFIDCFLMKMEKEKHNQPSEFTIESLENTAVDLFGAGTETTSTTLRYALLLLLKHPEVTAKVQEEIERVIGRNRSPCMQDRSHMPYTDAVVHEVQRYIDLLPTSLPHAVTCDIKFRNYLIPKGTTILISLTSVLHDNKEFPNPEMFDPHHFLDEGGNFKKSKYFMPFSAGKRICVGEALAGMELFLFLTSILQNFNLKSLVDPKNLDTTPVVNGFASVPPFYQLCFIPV
CYP2D6, sequence (P10635 whole entry): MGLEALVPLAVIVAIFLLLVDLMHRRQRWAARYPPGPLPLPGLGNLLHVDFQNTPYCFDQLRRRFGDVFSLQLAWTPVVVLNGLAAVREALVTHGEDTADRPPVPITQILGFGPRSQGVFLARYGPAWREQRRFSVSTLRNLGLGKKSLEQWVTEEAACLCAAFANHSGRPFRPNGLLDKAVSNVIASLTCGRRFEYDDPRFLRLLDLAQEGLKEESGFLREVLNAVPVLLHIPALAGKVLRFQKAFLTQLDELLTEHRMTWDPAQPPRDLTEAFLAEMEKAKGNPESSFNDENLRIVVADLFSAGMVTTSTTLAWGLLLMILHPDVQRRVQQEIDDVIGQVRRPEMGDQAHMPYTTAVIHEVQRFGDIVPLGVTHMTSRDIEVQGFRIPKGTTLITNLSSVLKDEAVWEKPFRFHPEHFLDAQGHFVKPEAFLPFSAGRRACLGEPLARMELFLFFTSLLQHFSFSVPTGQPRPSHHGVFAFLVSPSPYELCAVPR

SMILES: NCCC(=O)NC(c1ccc(Cl)cc1)c1nc2ccc(-c3cn[nH]c3)cc2c(=O)[nH]1 (configuration not stated)
IC50 [2]: 0.006 µM
IC50 [4]: 0.021 µM

SMILES: NCc1ccc(C(=O)NC(c2ccc(Cl)cc2)c2nc3ccc(-c4cn[nH]c4)cc3c(=O)[nH]2)cc1 (configuration not stated)
inhibition at 10 µM (CYP2D6): 96%
IC50 [1]: > 1 µM
inhibition at 10 µM (CYP2C9): 94%
IC50 [2]: 0.018 µM
IC50 [10]: 0.022 µM
IC50 [3]: > 1 µM
inhibition at 10 µM (CYP1A2): 90%
inhibition at 10 µM (CYP3A4): 63%
IC50 [4]: 0.096 µM
IC50 [6]: > 1 µM
half-life [7]: 420 min
IC50 [8]: > 1 µM
IC50 [9]: > 1 µM

SMILES: NCc1cccc(C(=O)NC(c2ccc(Cl)cc2)c2nc3ccc(-c4cn[nH]c4)cc3c(=O)[nH]2)c1 (configuration not stated)
IC50 [2]: 0.02 µM
IC50 [4]: 0.028 µM

SMILES: C[N+]1(C)C[C@@H](c2ccccc2)[C@H](c2nc3ccc(-c4cn[nH]c4)cc3c(=O)[nH]2)C1
IC50 [2]: 0.004 µM
IC50 [4]: 0.023 µM

SMILES: CN(CCO)c1nc([C@H](N)Cc2cccc(F)c2)nc2ccc(-c3cn[nH]c3)cc12
IC50 [2]: 0.027 µM
IC50 [4]: 0.044 µM

SMILES: CN(CCCO)c1nc([C@H](N)Cc2cccc(F)c2)nc2ccc(-c3cn[nH]c3)cc12
IC50 [2]: 0.159 µM

SMILES: CN(CCO)c1nc([C@@H](N)Cc2cccc(F)c2)nc2ccc(-c3cn[nH]c3)cc12
IC50 [2]: 0.027 µM
IC50 [4]: 0.284 µM

SMILES: NC(c1ccc(Cl)cc1)c1nc2ccc(-c3cn[nH]c3)cc2c(=O)[nH]1 (configuration not stated)
IC50 [2]: 0.01 µM
IC50 [4]: 0.009 µM

SMILES: NC(c1cccc(Cl)c1)c1nc2ccc(-c3cn[nH]c3)cc2c(=O)[nH]1 (configuration not stated)
inhibition at 10 µM (CYP2D6): 89%
IC50 [1]: > 1 µM
inhibition at 10 µM (CYP2C9): 84%
IC50 [2]: 0.013 µM
IC50 [10]: 0.015 µM
IC50 [3]: > 1 µM
inhibition at 10 µM (CYP1A2): 18%
inhibition at 10 µM (CYP3A4): 75%
IC50 [5]: 0.091 µM
IC50 [6]: > 1 µM
half-life [7]: 46 min
IC50 [8]: > 1 µM
IC50 [9]: > 1 µM

SMILES: COc1cc(-c2cn[nH]c2)cc2c(=O)[nH]c(C(N)c3ccc(Cl)cc3)nc12 (configuration not stated)
IC50 [2]: 0.009 µM
IC50 [4]: 0.014 µM

SMILES: COc1cc(-c2cn[nH]c2)cc2c(=O)[nH]c(C(N)c3cccc(Cl)c3)nc12 (configuration not stated)
inhibition at 10 µM (CYP2D6): 63%
IC50 [1]: > 1 µM
inhibition at 10 µM (CYP2C9): 79%
IC50 [2]: 0.008 µM
IC50 [10]: 0.008 µM
IC50 [3]: > 1 µM
inhibition at 10 µM (CYP1A2): 54%
inhibition at 10 µM (CYP3A4): 80%
IC50 [4]: 0.011 µM
IC50 [6]: > 1 µM
half-life [7]: 51 min
IC50 [8]: > 1 µM
IC50 [9]: > 1 µM

SMILES: COc1ccc([C@@H]2CN(Cc3ccccc3)C[C@H]2c2nc3ccc(-c4cn[nH]c4)cc3c(=O)[nH]2)cc1
IC50 [2]: 0.088 µM
IC50 [4]: 0.117 µM

SMILES: O=c1[nH]c([C@@H]2CN(Cc3ccccc3)C[C@H]2c2cccc(F)c2)nc2ccc(-c3cn[nH]c3)cc12
IC50 [2]: 0.225 µM
IC50 [4]: 0.423 µM

Results, then the molecule that gave them:

inhibition at 10 µM (CYP2D6): 88%
IC50 [1]: > 1 µM
inhibition at 10 µM (CYP2C9): 47%
IC50 [2]: 0.0025 µM
IC50 [3]: > 1 µM
inhibition at 10 µM (CYP1A2): 49%
inhibition at 10 µM (CYP3A4): 77%
IC50 [4]: 0.279 µM
IC50 [5]: 0.8 µM
IC50 [6]: > 1 µM
half-life [7]: 86 min
IC50 [8]: > 1 µM
IC50 [9]: > 1 µM
SMILES: CN(C)c1nc([C@@H]2CNC[C@H]2c2ccccc2)nc2ccc(-c3cn[nH]c3)cc12

IC50 [2]: 0.071 µM
IC50 [4]: 0.443 µM
SMILES: Fc1ccc([C@@H]2CNC[C@H]2c2nc(N3CCC3)c3cc(-c4cn[nH]c4)ccc3n2)cc1

IC50 [2]: 0.371 µM
IC50 [4]: 0.884 µM
SMILES: CN(C)CCNc1nc([C@@H]2CNC[C@H]2c2ccc(F)cc2)nc2ccc(-c3cn[nH]c3)cc12

inhibition at 10 µM (CYP2D6): 66%
IC50 [1]: > 1 µM
inhibition at 10 µM (CYP2C9): 55%
IC50 [2]: 0.005 µM
IC50 [10]: 0.013 µM
IC50 [3]: > 1 µM
inhibition at 10 µM (CYP1A2): 0%
inhibition at 10 µM (CYP3A4): -3%
IC50 [4]: 0.026 µM
IC50 [5]: 0.03 µM
IC50 [6]: > 1 µM
half-life [7]: 21 min
IC50 [8]: > 1 µM
IC50 [9]: > 1 µM
SMILES: COc1ccc([C@@H]2CN(C)C[C@H]2c2nc3ccc(-c4cn[nH]c4)cc3c(=O)[nH]2)cc1

IC50 [2]: 0.627 µM
IC50 [4]: 1.16 µM
SMILES: CN(C)CCN(C)c1nc([C@H](N)Cc2cccc(F)c2)nc2ccc(-c3cn[nH]c3)cc12

IC50 [2]: 0.067 µM
IC50 [4]: 0.259 µM
SMILES: CN(C)c1nc([C@@H](N)Cc2cccc(F)c2)nc2ccc(-c3cn[nH]c3)cc12

IC50 [2]: 0.002 µM
IC50 [4]: 0.007 µM
SMILES: O=c1[nH]c([C@@H]2CNC[C@H]2c2ccc(F)cc2)nc2ccc(-c3cn[nH]c3)cc12

IC50 [2]: 0.002 µM
IC50 [4]: 0.006 µM
SMILES: O=c1[nH]c([C@@H]2CNC[C@H]2c2ccc(C(F)(F)F)cc2)nc2ccc(-c3cn[nH]c3)cc12
